“And” between values parts separate entries of the source, which are not always exact repeats. Equal entries are not always repeated. “Also recorded” adds a separate entry of the source. Positions of bridges follow the written chain, without caps; N, C: chain ends. Residues, ends and D or L forms follow the SMILES beside them.

Here are results for 2 compounds from paper PMC4203769, “The “Genomic Storm” Induced by Bacterial Endotoxin Is Calmed by a Nuclear Transport Modifier That Attenuates Localized and Systemic Inflammation” (PLoS ONE, 2014).

Series [1] in a line: Solubility of peptides in water. The class given is physicochemical. The text has this:
A fragment-linked peptide strategy to analyze signal-dependent nuclear transport is based on fusing a motif from the nuclear localization sequence (NLS) region of the NF-κB1/p50 subunit with the signal sequence hydrophobic region (SSHR) of human fibroblast growth factor 4 [7], [19]. NLS- and SSHR-containing NTMs (SN50, cSN50 and cSN50.1; see Table 1 for their composition and solubility) were designed to function at the nuclear transport level by binding to importins α during stimulus-initiated signaling and thereby modulate nuclear import of NLS-bearing SRTFs. The SSHR motif allows peptides to cross the plasma membrane of cells in culture or in experimental animals through an ATP- and endosome-independent mechanism. […] The functional utility of NTMs has been reported in numerous preclinical models of inflammation caused by microbial and autoimmune insults, [21]–[26].

For series [2], the system named is mouse blood cells and organs. Conditions: after i.p. injection; receptor- and endocytosis-independent mechanism; cited from earlier work. As for the experimental part:
NTM is rapidly delivered (within 30–60 min after i.p. injection) through a receptor-and endocytosis-independent mechanism to mouse blood cells and organs where it reaches sufficient intracellular concentration to engender localized (lung) and systemic (endotoxic shock) anti-inflammatory effects. Thus, the microvascular compartment of multiple organs that are vulnerable to LPS toxicity (e.g. lungs, liver, and kidneys) can be protected, [22]. Unlike anti-inflammatory glucocorticosteroids which produced discordant results in sepsis clinical trials, [33] and have potential ...

The test system of series [3] is primary macrophages challenged with LPS. Kind of series: Cell viability of LPS-challenged primary macrophages. The class given is cell-based, mouse (C57BL/6). Conditions: LPS-challenged BMDMs, 30 µM peptide; data not shown; listed as NTM.

In the case of `CSCC[C@@H]1NC(=O)[C@H](CC(C)C)NC(=O)[C@H](CCCCN)NC(=O)[C@H](CCC(N)=O)NC(=O)[C@H](CCCNC(=N)N)NC(=O)[C@H](CCCCN)NC(=O)[C@H](CCCNC(=N)N)NC(=O)[C@H](CCC(N)=O)NC(=O)[C@H](C(C)C)NC(=O)[C@@H](NC(=O)[C@@H]2CCCN2C(=O)[C@H](C)NC(=O)[C@H](CC(C)C)NC(=O)[C@H](CC(C)C)NC(=O)[C@H](C)NC(=O)[C@H](CC(C)C)NC(=O)[C@H](CC(C)C)NC(=O)[C@@H](NC(=O)[C@H](C)NC(=O)[C@@H]2CCCN2C(=O)[C@H](CC(C)C)NC(=O)[C@H](CC(C)C)NC(=O)[C@H](C)NC(=O)[C@@H](NC(=O)[C@H](C)NC(=O)[C@H](C)N)C(C)C)C(C)C)CSSC[C@@H](C(=O)O)NC(=O)[C@@H]2CCCN2C1=O` [cSN50.1] (H-AAVALLPAVLLALLAPCVQRKRQKLMPC-OH; disulfide 17-28), the “Solubility in Water” value in series [1] is 100 mg/mL and 33.5 mM. Also, in series [2], the “time to delivery to mouse blood cells and organs” value is 30 to 60 min. Further, the “effect on cell viability / cytotoxicity” value in series [3] is recorded as “without altering expression of housekeeping genes or being cytotoxic; also recorded: not associated with changes in cell viability”.
Consider `CSCC[C@@H]1NC(=O)[C@H](CC(C)C)NC(=O)[C@H](CCCCN)NC(=O)[C@H](CCC(N)=O)NC(=O)[C@H](CCCNC(=N)N)NC(=O)[C@H](CCCCN)NC(=O)[C@H](CCCNC(=N)N)NC(=O)[C@H](CCC(N)=O)NC(=O)[C@H](C(C)C)NC(=O)[C@H](Cc2ccc(O)cc2)NC(=O)[C@@H](NC(=O)[C@@H]2CCCN2C(=O)[C@H](C)NC(=O)[C@H](CC(C)C)NC(=O)[C@H](CC(C)C)NC(=O)[C@H](C)NC(=O)[C@H](CC(C)C)NC(=O)[C@H](CC(C)C)NC(=O)[C@@H](NC(=O)[C@H](C)NC(=O)[C@@H]2CCCN2C(=O)[C@H](CC(C)C)NC(=O)[C@H](CC(C)C)NC(=O)[C@H](C)NC(=O)[C@@H](NC(=O)[C@H](C)NC(=O)[C@H](C)N)C(C)C)C(C)C)CSSC[C@@H](C(=O)O)NC(=O)[C@@H]2CCCN2C1=O` [cSN50, reference compound] (H-AAVALLPAVLLALLAPCYVQRKRQKLMPC-OH; disulfide 17-29), for which, in series [1], the “Solubility in Water” value was 38 mg/mL and 12.1 mM.
